Measurements reported in ChEMBL document CHEMBL5257061, “Structural Study of Potent Triazole-Based Inhibitors of Staphylococcus aureus Biotin Protein Ligase” (ACS Med Chem Lett, 2023).
Converted amounts (≈) assume the structure as drawn.

How the values were obtained:
Staphylococcus aureus [1] = experiment: Antibacterial activity against Staphylococcus aureus ATCC 49775 assessed as inhibition of bacterial growth; type: functional
[2] = Inhibition of Staphylococcus aureus Biotin protein ligase assessed as inhibition constant
[3] = Inhibition of Staphylococcus aureus Biotin protein ligase assessed as inhibition constant by biotinylation assay
Staphylococcus aureus [4] = experiment: Antibacterial activity against Staphylococcus aureus ATCC 49775 assessed as inhibition of bacterial growth incubated for 16 to 20 hrs by CLSI protocol based two-fold serial dilution method; type: functional; details: time 16-20 hrs
[5] = Inhibition of recombinant Staphylococcus aureus C-terminal hexahistidine tagged Biotin protein ligase expressed in Escherichia coli BL21 (DE3) assessed as inhibition constant incubated for 10 mins in presence of ATP by [3H]-Biotin incorporation based liquid scintillation counting analysis
[6] = Inhibition of recombinant Staphylococcus aureus C-terminal hexahistidine tagged Biotin protein ligase expressed in Escherichia coli BL21 (DE3) assessed as inhibition constant incubated for 30 mins by [3H]-Biotin incorporation based radioactivity based assay

| MIC (Staphylococcus aureus [4]) [µg/mL] | SMILES | Ki [3] [nM] | also measured |
| --- | --- | --- | --- |
| > 64 | NC(=O)CCCCNC(=O)c1ccc(C(c2cccc(F)c2)n2cc(CCCCC[C@@H]3SC[C@@H]4NC(=O)N[C@@H]43)nn2)cc1 (some centres not stated) | 246 |  |
| 8 (≈ 14.1 µM) | NCCCNC(=O)c1ccc(C(c2cccc(F)c2)n2cc(CCCCC[C@@H]3SC[C@@H]4NC(=O)N[C@@H]43)nn2)cc1 (some centres not stated) | 30 |  |
| 32 (≈ 51.9 µM) | O=C1N[C@H]2[C@H](CS[C@H]2CCCCCc2cn(C(c3ccc(C(=O)NCCCc4c[nH]cn4)cc3)c3cccc(F)c3)nn2)N1 (some centres not stated) | 181 |  |
| > 64 | NCCCNC(=O)c1ccc(C(c2cccc(F)c2)n2nnc(CCCCC[C@@H]3SC[C@@H]4NC(=O)N[C@@H]43)c2F)cc1 (some centres not stated) | 268 |  |
| 4 (≈ 6.74 µM) | NC(=O)CCCNC(=O)c1ccc(C(c2cccc(F)c2)n2cc(CCCCC[C@@H]3SC[C@@H]4NC(=O)N[C@@H]43)nn2)cc1 (some centres not stated) | 10 |  |

The next lines start with the compound.

| SMILES | MIC (Staphylococcus aureus [4]) [µg/mL] | Ki [3] [nM] | also measured |
| --- | --- | --- | --- |
| Nc1cc(CNC(=O)c2ccc(C(c3cccc(F)c3)n3cc(CCCCC[C@@H]4SC[C@@H]5NC(=O)N[C@@H]54)nn3)cc2)ccn1 (some centres not stated) |  |  | MIC (Staphylococcus aureus [1]): 8 µg/mL (≈ 13 µM); Ki [2]: 8.43 nM |
| O=C1N[C@H]2[C@H](CS[C@H]2CCCCCc2cn(C(c3ccc(C(=O)NCc4ccccn4)cc3)c3cccc(F)c3)nn2)N1 (some centres not stated) | > 64 | 544 |  |
| O=C1N[C@H]2[C@H](CS[C@H]2CCCCCc2cn(Cc3cccc(F)c3)nn2)N1 |  |  | Ki [5]: 670 nM |
| Cc1ccc2oc(=O)n(CCCCn3cc(CCCCC[C@@H]4SC[C@@H]5NC(=O)N[C@@H]54)nn3)c2c1 |  |  | Ki [5]: 230 nM |
| O=C1N[C@H]2[C@H](CS[C@H]2CCCCCc2cn(C(c3ccc(C(=O)NCc4ccccc4)cc3)c3cccc(F)c3)nn2)N1 (some centres not stated) | > 64 | 867 |  |
| O=C1N[C@H]2[C@H](CS[C@H]2CCCCCc2cn(C(c3ccc(C(=O)NCCc4c[nH]cn4)cc3)c3cccc(F)c3)nn2)N1 (some centres not stated) |  |  | MIC (Staphylococcus aureus [1]): 1 µg/mL (≈ 1.66 µM); Ki [2]: 6.01 nM |
| Cc1ccc2oc(=O)n(CCCCn3nnc(CCCCC[C@@H]4SC[C@@H]5NC(=O)N[C@@H]54)c3F)c2c1 |  |  | Ki [5]: 420 nM |
| Nc1cc(CNC(=O)c2ccc(C(c3cccc(F)c3)n3nnc(CCCCC[C@@H]4SC[C@@H]5NC(=O)N[C@@H]54)c3F)cc2)ccn1 (some centres not stated) | > 64 | 131 |  |
| O=C1N[C@H]2[C@H](CS[C@H]2CCCCCc2cn(C(c3ccc(C(=O)NCc4cccnc4)cc3)c3cccc(F)c3)nn2)N1 (some centres not stated) | > 64 | 237 |  |
| Nc1ncnc2c1ncn2[C@@H]1O[C@H](COP(=O)(O)OCCCCC[C@@H]2SC[C@@H]3NC(=O)N[C@@H]32)[C@@H](O)[C@H]1O |  |  | Ki [6]: 30 nM |
| O=C1N[C@H]2[C@H](CS[C@H]2CCCCCc2cn(Cc3ccc(C(=O)O)cc3)nn2)N1 |  |  | Ki [5]: 280 nM |
| Nc1ccc(CNC(=O)c2ccc(C(c3cccc(F)c3)n3cc(CCCCC[C@@H]4SC[C@@H]5NC(=O)N[C@@H]54)nn3)cc2)cc1 (some centres not stated) | > 64 | 63 |  |
| O=C1N[C@H]2[C@H](CS[C@H]2CCCCCc2cn(C(c3ccc(C(=O)NCc4ccncc4)cc3)c3cccc(F)c3)nn2)N1 (some centres not stated) | > 64 | 130 |  |
| Nc1ncnc2c1ncn2[C@@H]1O[C@H](Cn2cc(CCCCC[C@@H]3SC[C@@H]4NC(=O)N[C@@H]43)nn2)[C@@H](O)[C@H]1O |  |  | Ki [6]: 1170 nM |
